Experimental data as given in ChEMBL document CHEMBL4616632, “Discovery of Cyclic Boronic Acid QPX7728, an Ultrabroad-Spectrum Inhibitor of Serine and Metallo-β-lactamases” (J Med Chem, 2020).
pKi: −log10 of the molar value.

Columns and labels:
[1] = Oral bioavailability in rat at 50 to 75 mg/kg by HPLC/MS analysis; assay type: ADME, organism-based; conditions: in vivo
[2] = Inhibition of recombinant Escherichia coli OXA-48 using nitrocefin as substrate preincubated for 10 mins followed by substrate addition and measured every 10 secs for 10 mins by spectrophotometric analysis
Klebsiella pneumoniae [3] = assay: Inhibition of Klebsiella pneumoniae KP1086 OXA-48 assessed as minimum concentration of compound needed to reduce the MIC of biapenem to 1 ug/ml
[4] = biological target: Class A carbapenemase KPC-2 (Escherichia coli, UniProt A8DS27); assay: Inhibition of recombinant Escherichia coli KPC-2 using nitrocefin as substrate preincubated for 10 mins followed by substrate addition and measured every 10 secs for 10 mins by spectrophotometric analysis
[5] = Inhibition of recombinant Escherichia coli NDM-1 using imipenem as substrate preincubated for 10 mins followed by substrate addition and measured every 30 secs for 30 mins by spectrophotometric analysis
[6] = biological target: Beta-lactamase (Klebsiella pneumoniae) (UniProt Q93LQ9); assay: Inhibition of Klebsiella pneumoniae KP1004 KPC-2 assessed as minimum concentration of compound needed to reduce the MIC of biapenem to 1 ug/ml
Klebsiella pneumoniae [7] = assay: Inhibition of Klebsiella pneumoniae KP1081 NDM-1 assessed as minimum concentration of compound needed to reduce the MIC of biapenem to 1 ug/ml
[8] = Inhibition of recombinant Escherichia coli IMP-1 using imipenem as substrate preincubated for 10 mins followed by substrate addition measured every 30 secs for 30 mins by spectrophotometrically analysis
BlaVIM-1 = BlaVIM-1 (Escherichia coli, UniProt Q8GDC1); assay: Inhibition of recombinant Escherichia coli VIM-1 using nitrocefin as substrate preincubated for 10 mins followed by substrate addition measured every 10 secs for 10 mins by spectrophotometrically analysis
[9] = Inhibition of […] OXA-48 using nitrocefin as substrate preincubated for 10 mins followed by substrate addition measured every 10 secs for 10 mins by spectrophotometrically analysis
Klebsiella pneumoniae [10] = assay: Inhibition of Klebsiella pneumoniae KP1081 NDM-1 assessed as minimum concentration of compound required to reduce the MIC of biapenem to 1 ug/ml
[11] = biological target: Beta-lactamase (Klebsiella pneumoniae) (UniProt Q93LQ9); assay: Inhibition of Klebsiella pneumoniae KP1004 KPC-2 assessed as minimum concentration of compound needed to reduce the MIC of aztreonam to 4 ug/ml
[12] = Inhibition of recombinant Escherichia coli AmpC using nitrocefin as substrate preincubated for 10 mins followed by substrate addition measured every 10 secs for 10 mins by spectrophotometrically analysis
[13] = Inhibition of recombinant Escherichia coli CTX-M-14 using nitrocefin as substrate preincubated for 10 mins followed by substrate addition measured every 10 secs for 10 mins by spectrophotometrically analysis
[14] = Inhibition of recombinant Escherichia coli SHV-12 using nitrocefin as substrate preincubated for 10 mins followed by substrate addition measured every 10 secs for 10 mins by spectrophotometrically analysis
Klebsiella pneumoniae [15] = assay: Inhibition of Klebsiella pneumoniae KP1054 VIM-1 assessed as minimum concentration of compound required to reduce the MIC of biapenem to 1 ug/ml
Acinetobacter baumannii = assay: Inhibition of Acinetobacter baumannii AB1053 OXA-72 assessed as minimum concentration of compound needed to reduce the MIC of meropenem to 8 ug/ml
Pseudomonas aeruginosa [16] = assay: Inhibition of Pseudomonas aeruginosa PAM 2035 AmpC assessed as minimum concentration of compound needed to reduce the MIC of aztreonam to 4 ug/ml
Enterobacter cloacae = assay: Inhibition of Enterobacter cloacae ECL1002 AmpC assessed as minimum concentration of compound needed to reduce the MIC of aztreonam to 4 ug/ml
Escherichia coli [17] = assay: Inhibition of Escherichia coli KP308 SHV-5 assessed as minimum concentration of compound required to reduce the MIC of aztreonam to 4 ug/ml
Klebsiella pneumoniae [18] = assay: Inhibition of Klebsiella pneumoniae KP1160 IMP-26 assessed as minimum concentration of compound needed to reduce the MIC of meropenem to 1 ug/ml
Escherichia coli [19] = assay: Inhibition of Escherichia coli ECM6619 TEM-10 assessed as minimum concentration of compound needed to reduce the MIC of aztreonam to 4 ug/ml
Escherichia coli [20] = assay: Inhibition of Escherichia coli ECM6625 SHV-5 assessed as minimum concentration of compound needed to reduce the MIC of aztreonam to 4 ug/ml
[21] = biological target: Beta-lactamase OXA-23 (Acinetobacter baumannii) (UniProt Q9L4P2); assay: Inhibition of Acinetobacter baumannii AB1054 OXA-23 assessed as minimum concentration of compound needed to reduce the MIC of meropenem to 8 ug/ml
Escherichia coli [22] = assay: Inhibition of Escherichia coli EC302 TEM-10 assessed as minimum concentration of compound needed to reduce the MIC of aztreonam to 4 ug/ml
Klebsiella pneumoniae [23] = assay: Inhibition of Klebsiella pneumoniae KP1009 CTX-M-15 assessed as minimum concentration of compound required to reduce the MIC of aztreonam to 4 ug/ml
[24] = Protein binding in human plasma; assay type: ADME, cell-free; conditions: read-out: PPB (converted)
Pseudomonas aeruginosa [25] = assay: Inhibition of Pseudomonas aeruginosa PAM 1032 KPC-2 assessed as minimum potentiating concentration of compound needed to reduce the MIC of biapenem by 64 fold
Escherichia coli [26] = assay: Inhibition of Escherichia coli EC308 SHV-5 assessed as minimum concentration of compound needed to reduce the MIC of aztreonam to 4 ug/ml
[27] = Ratio of inhibition of Pseudomonas aeruginosa PAM 1032 KPC-2 assessed as minimum potentiating concentration of compound needed to reduce the MIC of biapenem by 64 fold to inhibition of Pseudomonas aeruginosa PAM 1154 KPC-2 assessed as assessed as minimum potentiating concentration of compound needed to reduce the MIC of biapenem by 64 fold
Pseudomonas aeruginosa [28] = assay: Inhibition of Pseudomonas aeruginosa PAM 1154 KPC-2 assessed as assessed as minimum potentiating concentration of compound needed to reduce the MIC of biapenem by 64 fold
[29] = Drug metabolism in dog assessed as oxidative-deboronation by measuring 2-hydroxy-3-(2-hydroxyethyl)-6-methoxy-benzoic acid formation; assay type: ADME, Canis lupus familiaris
[30] = Drug metabolism in monkey assessed as oxidative-deboronation by measuring 2-hydroxy-3-(2-hydroxyethyl)-6-methoxy-benzoic acid formation; assay type: ADME, Macaca mulatta; conditions: rhesus monkey
[31] = Oral bioavailability in rat; assay type: ADME, organism-based; conditions: in vivo
[32] = Drug level in monkey treated with disodium salt of 8-carboxylato-2,2-dihydroxy-7-methoxy-3,4-dihydro-2Hbenzo[e][1,2]oxaborinin-2-uide assessed as compound formation; assay type: ADME, Macaca mulatta; conditions: rhesus monkey, in vivo
[33] = Drug level in dog treated with disodium salt of 8-carboxylato-2,2-dihydroxy-7-methoxy-3,4-dihydro-2Hbenzo[e][1,2]oxaborinin-2-uide assessed as compound formation; assay type: ADME, Canis lupus familiaris; conditions: in vivo
Beta-lactamase OXA-23 = Beta-lactamase OXA-23 (Acinetobacter baumannii, UniProt Q9L4P2); assay: Inhibition of Acinetobacter baumannii OXA-23 using nitrocefin as substrate preincubated for 10 mins followed by substrate addition measured every 10 secs for 10 mins by spectrophotometrically analysis
Sequence of Beta-lactamase OXA-23 (Q9L4P2 whole entry): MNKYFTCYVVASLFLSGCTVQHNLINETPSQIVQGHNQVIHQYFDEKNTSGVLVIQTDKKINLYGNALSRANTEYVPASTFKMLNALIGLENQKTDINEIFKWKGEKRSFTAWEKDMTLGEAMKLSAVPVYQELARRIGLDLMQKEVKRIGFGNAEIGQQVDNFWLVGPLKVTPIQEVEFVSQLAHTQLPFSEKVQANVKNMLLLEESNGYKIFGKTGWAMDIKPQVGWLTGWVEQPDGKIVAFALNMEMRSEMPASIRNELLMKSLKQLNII

Sequence of Class A carbapenemase KPC-2 (A8DS27 whole entry): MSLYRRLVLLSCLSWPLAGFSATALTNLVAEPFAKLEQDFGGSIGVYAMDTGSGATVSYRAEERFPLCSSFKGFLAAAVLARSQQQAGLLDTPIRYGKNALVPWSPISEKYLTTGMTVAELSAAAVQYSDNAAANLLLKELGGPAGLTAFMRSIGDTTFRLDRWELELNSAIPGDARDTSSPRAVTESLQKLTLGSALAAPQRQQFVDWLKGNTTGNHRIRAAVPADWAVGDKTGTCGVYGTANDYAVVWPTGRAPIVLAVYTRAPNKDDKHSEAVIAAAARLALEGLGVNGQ
Sequence of Beta-lactamase (Klebsiella pneumoniae) (Q93LQ9 as listed by the source): as the sequence (A8DS27 whole entry) above
Sequence of Beta-lactamase OXA-23 (Acinetobacter baumannii) (Q9L4P2 whole entry): as the sequence (Q9L4P2 whole entry) above

## CCOC(=O)OCOC(=O)c1c(OC)ccc2c1OB(O)[C@@H](Sc1nncs1)C2
[1]
  bioavailability: 64%

## Nc1nnc(SCC(=O)N[C@H]2Cc3cccc(C(=O)O)c3OB2O)s1
[2]
  pKi: 9.30
Klebsiella pneumoniae [3]
  Activity: 2.5 µg/mL
[4]
  pKi: 7.68
[5]
  pKi: 5.13
[6]
  Activity: 0.08 µg/mL
Klebsiella pneumoniae [7]
  Activity: > 20 µg/mL

## NC(=O)[C@@H]1CC[C@@H]2CN1C(=O)N2OS(=O)(=O)O [AVIBACTAM]
[2]
  pKi: 7.57
Klebsiella pneumoniae [3]
  Activity: 1.25 µg/mL
[4]
  pKi: 7.96
[8]
  pKi: < 4.40
BlaVIM-1
  pKi: < 4.40
[9]
  pKi: 7.57
[5]
  pKi: 4.10 to 4.40
Klebsiella pneumoniae [10]
  MEC: > 20 µg/mL
[6]
  Activity: < 0.04 µg/mL
[11]
  MEC: < 0.04 µg/mL
[12]
  pKi: 8.00
[13]
  pKi: 9.39
[14]
  pKi: 9.57
Klebsiella pneumoniae [7]
  Activity: > 20 µg/mL

## COc1ccc2c(c1C(=O)O)OB(O)[C@@H](Sc1nncs1)C2
Klebsiella pneumoniae [15]
  MEC: 0.3 µg/mL
Acinetobacter baumannii
  MEC: > 20 µg/mL
Pseudomonas aeruginosa [16]
  MEC: 10 µg/mL
Enterobacter cloacae
  MEC: 10 µg/mL
Escherichia coli [17]
  MEC: 0.3 µg/mL
Klebsiella pneumoniae [18]
  MEC: 5 µg/mL
Escherichia coli [19]
  MIC: 2.5 µg/mL
Escherichia coli [20]
  MEC: 0.3 µg/mL
Klebsiella pneumoniae [10]
  MEC: 0.3 µg/mL
[21]
  MEC: > 20 µg/mL
Escherichia coli [22]
  MEC: 2.5 µg/mL
Klebsiella pneumoniae [23]
  MEC: 2.5 µg/mL
[11]
  MEC: 1.25 µg/mL
[1]
  bioavailability: 3%

## COc1ccc2c(c1C(=O)O)OB(O)[C@@H]1C[C@H]21
Klebsiella pneumoniae [15]
  MEC: 0.04 µg/mL
Acinetobacter baumannii
  MEC: 0.6 µg/mL
Pseudomonas aeruginosa [16]
  MEC: 2.5 µg/mL
[24]
  fraction unbound: 0.11
Enterobacter cloacae
  MEC: 0.3 µg/mL
Escherichia coli [17]
  MEC: 0.08 µg/mL
Klebsiella pneumoniae [18]
  MEC: 5 µg/mL
Escherichia coli [19]
  MEC: 0.08 µg/mL
Escherichia coli [20]
  MEC: 0.08 µg/mL
Klebsiella pneumoniae [10]
  MEC: 0.3 µg/mL
[21]
  MEC: 1.25 µg/mL
Escherichia coli [22]
  MEC: 0.08 µg/mL
Klebsiella pneumoniae [23]
  MEC: 0.3 µg/mL
[11]
  MEC: 0.16 µg/mL

## COc1ccc2c(c1C(=O)OCOC(C)=O)OB(O)[C@@H](Sc1nncs1)C2
[1]
  bioavailability: 52%

## COc1ccc2c(c1C(=O)OCOC(=O)C(C)(C)C)OB(O)[C@@H](Sc1nncs1)C2
[1]
  bioavailability: 100%

## COc1ccc2c(c1C(=O)OCOC(=O)C(C)C)OB(O)[C@@H](Sc1nncs1)C2
[1]
  bioavailability: 100%

## COc1ccc2c(c1C(=O)O)OB(O)[C@@H](NC(=O)CSC)C2
Pseudomonas aeruginosa [25]
  Activity: 10 µg/mL
Pseudomonas aeruginosa [16]
  MEC: 20 µg/mL
Escherichia coli [26]
  MEC: < 0.3 µg/mL
Enterobacter cloacae
  MEC: 0.6 µg/mL
[27]
  Ratio: 2
Escherichia coli [22]
  MEC: < 0.3 µg/mL
Klebsiella pneumoniae [23]
  MEC: < 0.3 µg/mL
[11]
  MEC: < 0.3 µg/mL
Pseudomonas aeruginosa [28]
  Activity: 5 µg/mL

## COc1ccc2c(c1C(=O)O)OB(O)CC2
[29]
  Drug metabolism: Metabolite_Detected
Klebsiella pneumoniae [15]
  MEC: 0.6 µg/mL
[30]
  Drug metabolism: Metabolite_Detected
Acinetobacter baumannii
  MEC: 0.6 µg/mL
Pseudomonas aeruginosa [16]
  MEC: 1.25 µg/mL
[31]
  bioavailability: 50%
Enterobacter cloacae
  MEC: 0.3 µg/mL
Klebsiella pneumoniae [18]
  MEC: > 20 µg/mL
Escherichia coli [19]
  MEC: 0.08 µg/mL
Escherichia coli [20]
  MEC: 0.6 µg/mL
Klebsiella pneumoniae [10]
  MEC: 0.6 µg/mL
[21]
  MEC: 0.6 µg/mL
Klebsiella pneumoniae [23]
  MEC: 0.6 µg/mL
[11]
  MEC: 0.16 µg/mL

## O=C(O)c1cccc2c1OB(O)[C@@H](Sc1nncs1)C2
Klebsiella pneumoniae [15]
  MEC: 2.5 µg/mL
Enterobacter cloacae
  MEC: 20 µg/mL
[2]
  pKi: 8.85
Escherichia coli [17]
  MEC: 2.5 µg/mL
Klebsiella pneumoniae [3]
  Activity: 5 µg/mL
[4]
  pKi: 6.82
Klebsiella pneumoniae [18]
  MEC: 40 µg/mL
[5]
  pKi: 7.62
Klebsiella pneumoniae [10]
  MEC: 0.6 µg/mL
Escherichia coli [22]
  MEC: 20 µg/mL
Klebsiella pneumoniae [23]
  MEC: > 20 µg/mL
[6]
  Activity: 0.16 µg/mL
[11]
  MEC: 10 µg/mL
Klebsiella pneumoniae [7]
  Activity: 0.6 µg/mL

## COc1ccc(CCO)c(O)c1C(=O)O
[32]
  Drug uptake: Active
[33]
  Drug uptake: Active

## O=C(O)C[C@@H]1CC[C@H](NC(=O)Cc2cccs2)B(O)O1 [VABORBACTAM]
Beta-lactamase OXA-23
  pKi: < 4.40
[4]
  pKi: 7.25
[8]
  pKi: < 4.40
BlaVIM-1
  pKi: < 4.40
[9]
  pKi: 4.85
[5]
  pKi: < 4.40
[12]
  pKi: 7.46
[13]
  pKi: 7.48
[14]
  pKi: 7.68

## COc1ccc2c(c1C(=O)OCOC(=O)OC(C)C)OB(O)[C@@H](Sc1nncs1)C2
[1]
  bioavailability: 94%

## CSCC(=O)N[C@H]1Cc2ccc(O)c(C(=O)O)c2OB1O
Pseudomonas aeruginosa [25]
  Activity: 40 µg/mL
Pseudomonas aeruginosa [16]
  MEC: 5 µg/mL
Escherichia coli [26]
  MEC: < 0.3 µg/mL
Enterobacter cloacae
  MEC: 2.5 µg/mL
[27]
  Ratio: 16
Escherichia coli [22]
  MEC: 2.5 µg/mL
Klebsiella pneumoniae [23]
  MEC: 1.25 µg/mL
[11]
  MEC: 1.25 µg/mL
Pseudomonas aeruginosa [28]
  Activity: 2.5 µg/mL

## CSCC(=O)N[C@H]1Cc2ccc(F)c(C(=O)O)c2OB1O
Pseudomonas aeruginosa [25]
  Activity: 20 µg/mL
Klebsiella pneumoniae [15]
  MEC: > 20 µg/mL
Acinetobacter baumannii
  MEC: > 20 µg/mL
Pseudomonas aeruginosa [16]
  MEC: 10 µg/mL
Escherichia coli [26]
  MEC: < 0.3 µg/mL
Enterobacter cloacae
  MEC: 2.5 µg/mL
[27]
  Ratio: 4
Klebsiella pneumoniae [18]
  MEC: > 20 µg/mL
Escherichia coli [19]
  MEC: 1.25 µg/mL
Escherichia coli [20]
  MEC: 0.15 µg/mL
Klebsiella pneumoniae [10]
  MEC: > 20 µg/mL
[21]
  MEC: > 20 µg/mL
Escherichia coli [22]
  MEC: 1.25 µg/mL
Klebsiella pneumoniae [23]
  MEC: < 0.3 µg/mL
[11]
  MEC: 0.6 µg/mL
Pseudomonas aeruginosa [28]
  Activity: 5 µg/mL
